# Source: ChEMBL document CHEMBL5096175, “An insight into the medicinal attributes of berberine derivatives: A review” (Bioorg Med Chem, 2021)
# Tests used:
# Staphylococcus aureus [1] = assay: Antibacterial activity against Staphylococcus aureus CICC 23656 assessed as inhibition of bacterial growth incubated for 24 hrs by broth microdilution method; assay type: functional
# Staphylococcus aureus [2] = assay: Antibacterial activity against methicillin-resistant Staphylococcus aureus ATCC 700699 assessed as inhibition of bacterial growth incubated for 24 hrs by broth microdilution method; assay type: functional
# Clostridium perfringens = assay: Antibacterial activity against Clostridium perfringens CICC 22949 assessed as inhibition of bacterial growth incubated for 24 hrs by broth microdilution method; assay type: functional
# Streptococcus pyogenes = assay: Antibacterial activity against Streptococcus pyogenes CICC 10356 assessed as inhibition of bacterial growth incubated for 24 hrs by broth microdilution method; assay type: functional
# Escherichia coli = assay: Antibacterial activity against Escherichia coli CICC 10389 assessed as inhibition of bacterial growth incubated for 24 hrs by broth microdilution method; assay type: functional
# Shigella dysenteriae = assay: Antibacterial activity against Shigella dysenteriae CICC 23829 assessed as inhibition of bacterial growth incubated for 24 hrs by broth microdilution method; assay type: functional
# Salmonella enteritidis = assay: Antibacterial activity against Salmonella enteritidis CICC 24119 assessed as inhibition of bacterial growth incubated for 24 hrs by broth microdilution method; assay type: functional, Salmonella enterica subsp. enterica serovar Enteritidis; settings: Salmonella enterica
# Pseudomonas aeruginosa = assay: Antibacterial activity against Pseudomonas aeruginosa CICC 10419 assessed as inhibition of bacterial growth incubated for 24 hrs by broth microdilution method; assay type: functional
# MCF7 [3] = assay: Antiproliferative activity against human MCF7 cells incubated for 24 hrs by MTT assay; assay type: functional, cell-based; settings: MCF7, 24 h
# Chitinase B = Chitinase B (Serratia marcescens, UniProt P11797); assay: Inhibition of Serratia marcescens chitinase B expressed in Escherichia coli BL21(DE3) cells using MU-(GlcNAc)2 as a substrate assessed as inhibition constant incubated for 25 mins by dixon plot analysis
# HEK-293T = assay: Antiinflammatory activity against HEK-293T cells assessed as inhibition of TNF-alpha induced NF-kappaB activation at 5 uM preincubated for 2 hrs followed by TNFalpha stimulation for 6 hrs by dual-luciferase reporter assay relative to control; assay type: functional; settings: Homo sapiens, time 8 hrs
# Brucella abortus = assay: Antibacterial activity against Brucella abortus by serial dilution method; assay type: functional
# Vibrio cholerae = assay: Antibacterial activity against Vibrio cholerae by serial dilution method; assay type: functional
# HCT-8 [4] = assay: Antiproliferative activity against human HCT-8 cells assessed as inhibition of cell growth incubated for 72 hrs by MTT assay; assay type: functional, cell-based; settings: HCT-8, 72 h
# Bel-7402 = assay: Antiproliferative activity against human Bel-7402 cells assessed as inhibition of cell growth incubated for 72 hrs by MTT assay; assay type: functional, cell-based; settings: Bel-7402, 72 h
# A549 [5] = assay: Antiproliferative activity against human A549 cells assessed as inhibition of cell growth incubated for 72 hrs by MTT assay; assay type: functional, cell-based; settings: A549, 72 h
# HeLa [6] = assay: Antiproliferative activity against human HeLa cells assessed as inhibition of cell growth incubated for 72 hrs by MTT assay; assay type: functional, cell-based
# HCT-116 = assay: Antiproliferative activity against human HCT-116 cells assessed as inhibition of cell proliferation incubated for 48 hrs by MTT assay; assay type: functional, cell-based; settings: HCT-116, 48 h
# LS174T = assay: Antiproliferative activity against human LS174T cells assessed as inhibition of cell proliferation incubated for 48 hrs by MTT assay; assay type: functional, cell-based
# SW-620 = assay: Antiproliferative activity against human SW620 cells assessed as inhibition of cell proliferation incubated for 48 hrs by MTT assay; assay type: functional, cell-based; settings: SW-620, 48 h
# SGC-7901 = assay: Antiproliferative activity against human SGC-7901 cells assessed as inhibition of cell proliferation incubated for 48 hrs by MTT assay; assay type: functional, cell-based; settings: SGC-7901, 48 h
# ECa-109 cell line = assay: Antiproliferative activity against human Eca-109 cells assessed as inhibition of cell proliferation incubated for 48 hrs by MTT assay; assay type: functional, cell-based; settings: ECa-109, 48 h
# MKN-28 = assay: Antiproliferative activity against human MKN-28 cells assessed as inhibition of cell proliferation incubated for 48 hrs by MTT assay; assay type: functional, cell-based; settings: MKN-28, 48 h
# HCT-8 [7] = assay: Antiproliferative activity against human HCT-8 cells assessed as inhibition of cell proliferation incubated for 48 hrs by MTT assay; assay type: functional, cell-based; settings: HCT-8, 48 h
# CCRF S-180 = assay: Antiproliferative activity against mouse CCRF S-180 cells assessed as inhibition of cell proliferation incubated for 48 hrs by MTT assay; assay type: functional, cell-based; settings: CCRF S-180, 48 h
# A549 [8] = assay: Cytotoxicity against human A549 cells assessed as inhibition of cell proliferation incubated for 24 hrs by MTT assay; assay type: functional, cell-based; settings: A549, 24 h
# HepG2 = assay: Cytotoxicity against human HepG2 cells assessed as inhibition of cell proliferation incubated for 24 hrs by MTT assay; assay type: functional, cell-based; settings: HepG2, 24 h
# PC-12 = assay: Cytotoxicity against […] cells assessed as inhibition of cell proliferation incubated for 24 hrs by MTT assay; assay type: functional, cell-based; settings: Rattus norvegicus, PC-12, 24 h
# MCF7 [9] = assay: Cytotoxicity against human MCF7 cells assessed as inhibition of cell proliferation incubated for 24 hrs by MTT assay; assay type: functional, cell-based; settings: MCF7, 24 h
# HeLa [10] = assay: Cytotoxicity against human HeLa cells assessed as inhibition of cell proliferation incubated for 24 hrs by MTT assay; assay type: functional, cell-based
# [11] = Antioxidant activity assessed as DPPH radical scavenging activity measured after 25 mins by UV visible spectrophotometeric analysis; assay type: functional
# [12] = Antioxidant activity assessed as ABTS radical scavenging activity incubated for 10 mins by UV spectrophotometeric analysis; assay type: functional
# HeLa [13] = assay: Anticancer activity against human HeLa cells assessed as cell growth inhibition incubated for 48 hrs by SRB assay; assay type: functional, cell-based
# Ca-Ski = assay: Anticancer activity against human Ca-Ski cells assessed as cell growth inhibition incubated for 48 hrs by SRB assay; assay type: functional, cell-based
# [14] = Antioxidant activity assessed as ABTS radical cation scavenging activity incubated for 10 mins under dark condition; assay type: functional
# [15] = Antioxidant activity assessed as DPPH radical scavenging potential measured for 30 mins optical density based analysis; assay type: functional
# Sequence of Chitinase B (P11797 whole entry): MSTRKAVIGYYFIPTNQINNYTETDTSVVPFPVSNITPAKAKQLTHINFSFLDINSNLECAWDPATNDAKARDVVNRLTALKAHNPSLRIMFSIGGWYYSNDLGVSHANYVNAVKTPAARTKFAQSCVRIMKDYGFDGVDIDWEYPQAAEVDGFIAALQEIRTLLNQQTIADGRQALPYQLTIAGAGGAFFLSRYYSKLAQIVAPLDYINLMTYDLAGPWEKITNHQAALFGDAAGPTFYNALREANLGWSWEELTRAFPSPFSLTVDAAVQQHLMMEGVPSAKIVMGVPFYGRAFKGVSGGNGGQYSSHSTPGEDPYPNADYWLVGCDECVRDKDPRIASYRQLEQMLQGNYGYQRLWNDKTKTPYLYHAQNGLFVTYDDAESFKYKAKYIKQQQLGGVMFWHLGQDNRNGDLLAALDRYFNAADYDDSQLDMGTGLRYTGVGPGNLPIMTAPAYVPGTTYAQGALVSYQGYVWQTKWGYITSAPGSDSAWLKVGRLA
smiles,measurement,setting,value
COc1ccc2cc3[n+](cc2c1OCc1ccc(C(F)(F)F)cc1)CCc1cc2c(cc1-3)OCO2,MIC,Staphylococcus aureus [1],0.82 µM
same,MIC,Staphylococcus aureus [2],0.82 µM
same,MIC,Clostridium perfringens,0.82 µM
same,MIC,Streptococcus pyogenes,0.82 µM
same,MIC,Escherichia coli,0.82 µM
same,MIC,Shigella dysenteriae,0.82 µM
same,MIC,Salmonella enteritidis,0.82 µM
same,MIC,Pseudomonas aeruginosa,0.82 µM
CCCCCCCCCOc1c(OC)ccc2cc3[n+](cc12)CCc1cc2c(cc1-3)OCO2,IC50,MCF7 [3],4.87 µM
COCCCCC(=O)Oc1c(OC)ccc2cc3[n+](cc12)CCc1cc2c(cc1-3)OCO2,Ki,Chitinase B,0.15 µM
COc1c(OC(=O)C23CC4CC(CC(C4)C2)C3)ccc2cc3[n+](cc12)CCc1cc2c(cc1-3)OCO2,inhibition at 5 µM,HEK-293T,> 90%
COc1ccc2cc3[n+](cc2c1OC(=O)c1ccc(C(C)(C)C)cc1)CCc1cc2c(cc1-3)OCO2,inhibition at 5 µM,HEK-293T,> 90%
COc1cc(CC2C(=O)C(C)C(=O)C(C)C2=O)c2cc3[n+](cc2c1O)CCc1cc2c(cc1-3)OCO2.[Cl-] (stereo not given),MIC,Brucella abortus,64 µg/mL
same,MIC,Vibrio cholerae,64 µg/mL
COc1ccc2cc3[n+](cc2c1OC(=O)c1ccccc1)CCc1cc2c(cc1-3)OCO2,Ki,Chitinase B,0.15 µM
COc1cc(C=C(C#N)C#N)c2cc3[n+](cc2c1O)CCc1cc2c(cc1-3)OCO2.[Cl-],MIC,Brucella abortus,64 µg/mL
same,MIC,Vibrio cholerae,64 µg/mL
CCCCCN(CCCCC)c1cc(OC)c(OC)c2c1CC1c3cc4c(cc3CCN1C2)OCO4 (stereo not given),IC50,HCT-8 [4],9.74 µM
same,IC50,Bel-7402,9.74 µM
same,IC50,A549 [5],9.74 µM
same,IC50,HeLa [6],9.74 µM
COc1ccc2c(CC(=O)ON[C@@H](CSCc3ccccc3)C(=O)OCc3ccccc3)c3[n+](cc2c1OC)CCc1cc2c(cc1-3)OCO2,IC50,HCT-116,15 µM
same,IC50,LS174T,15 µM
same,IC50,SW-620,15 µM
same,IC50,SGC-7901,15 µM
same,IC50,ECa-109 cell line,15 µM
same,IC50,MKN-28,15 µM
same,IC50,HCT-8 [7],15 µM
same,IC50,CCRF S-180,15 µM
CCCCCC/C=C\C/C=C/C(=O)NCCCCCCOc1c(OC)ccc2cc3[n+](cc12)CCc1cc2c(cc1-3)OCO2,IC50,A549 [8],3.25 µM
same,IC50,HepG2,4.42 µM
same,IC50,PC-12,3.77 µM
same,IC50,MCF7 [9],3.91 µM
same,IC50,HeLa [10],3.82 µM
COc1ccc2cc3[n+](cc2c1OCCCCCn1c(C)cc2ccccc21)CCc1cc2c(cc1-3)OCO2.[Cl-],IC50,[11],19.9 µM
same,IC50,[12],9.09 µM
same,IC50,HeLa [13],7.21 µg/mL
same,IC50,Ca-Ski,6.32 µg/mL
COc1ccc2cc3[n+](cc2c1OCc1ccc(C#N)cc1)CCc1cc2c(cc1-3)OCO2,MIC,Staphylococcus aureus [1],1.77 µM
same,MIC,Staphylococcus aureus [2],1.77 µM
same,MIC,Clostridium perfringens,1.77 µM
same,MIC,Streptococcus pyogenes,1.77 µM
same,MIC,Escherichia coli,1.77 µM
same,MIC,Shigella dysenteriae,1.77 µM
same,MIC,Salmonella enteritidis,1.77 µM
same,MIC,Pseudomonas aeruginosa,1.77 µM
COc1ccc2cc3[n+](cc2c1OS(=O)(=O)c1ccc(C(F)(F)F)cc1)CCc1cc2c(cc1-3)OCO2,inhibition at 5 µM,HEK-293T,> 90%
COc1ccc2cc3[n+](cc2c1OC(=O)C[C@@H]1C[C@H]2CC[C@@H]1C2)CCc1cc2c(cc1-3)OCO2,inhibition at 5 µM,HEK-293T,> 90%
COc1cc(CNc2nc3ccccc3s2)c2cc3[n+](cc2c1O)CCc1cc2c(cc1-3)OCO2,IC50,[14],8.48 µM
same,IC50,[15],25.4 µM
